{"source": "paper PMC6950245", "about": "“Identification and Characterization of ShSPI, a Kazal-Type Elastase Inhibitor from the Venom of Scolopendra Hainanum” (Toxins, 2019)", "note": "pKi: −log10 of the molar value. Where a SMILES comes first, the peptide text is derived from it. Bridges are numbered along the chain shown (N, C = ends).", "data": [{"biological_target": "T1, human neutrophil elastase (HNE) (Homo sapiens, UniProt P08246)", "T1 construct": "purchased Sigma-Aldrich E8140", "T1 sequence (P08246 30-267)": "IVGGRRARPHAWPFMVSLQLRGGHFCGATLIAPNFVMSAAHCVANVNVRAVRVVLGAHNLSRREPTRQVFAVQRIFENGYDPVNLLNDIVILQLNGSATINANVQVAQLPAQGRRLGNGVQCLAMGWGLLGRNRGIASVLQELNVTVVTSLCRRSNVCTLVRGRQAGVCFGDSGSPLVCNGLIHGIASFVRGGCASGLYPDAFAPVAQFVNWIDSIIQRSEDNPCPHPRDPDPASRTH", "assay": "Protease inhibition assay, human neutrophil elastase (chromogenic substrate, Dixon method)", "format": "biochemical", "from_the_text": "Human neutrophils elastase (HNE, E8140), porcine pancreatic elastase (PPE, E0127), cathepsin G (CG, C4428), human trypsin (T6424), α-chymotrypsin from human pancreas (C8946), and thrombin from human plasma (T4393) were all purchased from Sigma-Aldrich (USA). Factor Xa (FXa, HFXa 1011) and Factor XIIa (FXIIa, HFXIIa 1212a) were from Enzyme Research Laboratories (South Bend, IN, USA). Kallikrein from human plasma (420307) was from Merck Millipore (Billerica, MA, USA).\nSubstrate for HNE and PPE (MeOSuc-Ala-Ala-Pro-Val-pNA, 324696) was purchased from Merck Millipore (USA). Substrates for CG (Succinyl-Ala-Ala-Pro-Phe-pNA, 573462), trypsin (Nalpha-Benzoyl-L-arginine 4-nitroanilide hydrochloride, B3133), FXa (CH3OCO-D-CHA-Gly-Arg-pNA-AcOH, F3301), chymotrypsin (N-Succinyl-Gly-Gly-Phe-pNA, S1899), thrombin (β-Ala-Gly-Arg-pNA diacetate, T3068), and kallikrein (Z-Phe-Arg 7-amido-4-methylcoumarin hydrochloride, C9521) were purchased from Sigma-Aldrich (USA).\nAs mentioned in our previous study, experiments for protease inhibitory activity were assayed in buffer (0.05 M Tris-HCl, pH 7.8) at 37 °C. […] At the end of the incubation, the reaction was initiated by the addition of the exclusive substrate solution and monitored by recording the absorbance at 405 nm every 30 s for 30 min. Enzyme activity in each well was calculated based on the initial slope of the reaction curve, and percentage of the initial slope of the uninhibited reaction was expressed. The inhibition constant Ki value was determined according to the Dixon method.", "values": [{"smiles": "CC[C@H](C)[C@@H]1NC(=O)[C@H](C)NC(=O)[C@@H]2CCCN2C(=O)[C@@H]2CSSC[C@H](NC(=O)[C@H](CO)NC(=O)[C@H](CC(N)=O)NC(=O)[C@H](CO)NC(=O)[C@H](Cc3ccc(O)cc3)NC(=O)[C@H](CCSC)NC(=O)[C@H](CCCNC(=N)N)NC(=O)CNC(=O)[C@H](Cc3ccccc3)NC(=O)[C@H](CCC(=O)O)NC(=O)[C@H](CC(=O)O)NC(=O)[C@H](Cc3ccccc3)NC(=O)[C@H](C(C)C)NC(=O)[C@@H]3CCCN3C(=O)[C@H](CCC(N)=O)NC(=O)[C@H](Cc3ccc(O)cc3)NC1=O)C(=O)N[C@@H](C)C(=O)N[C@@H](CCSC)C(=O)N[C@@H](CCC(N)=O)C(=O)N[C@@H](CCCNC(=N)N)C(=O)N[C@@H](C)C(=O)N[C@@H](CCCNC(=N)N)C(=O)N[C@H](C(=O)N[C@@H](CC(C)C)C(=O)N[C@@H](CCCNC(=N)N)C(=O)NCC(=O)O)CSSC[C@H](N)C(=O)N1CCC[C@H]1C(=O)N[C@@H](CCC(N)=O)C(=O)N[C@@H](C(C)C)C(=O)N2", "note": "[E25A] (H-CPQVCPAIYQPVFDEFGRMYSNSCAMQRARCLRG-OH; disulfide 1-31, 5-24)", "pKi": "< 3.00"}, {"smiles": "CC[C@H](C)[C@@H]1NC(=O)[C@H](C)NC(=O)[C@@H]2CCCN2C(=O)[C@@H]2CSSC[C@H](NC(=O)[C@H](CO)NC(=O)[C@H](CC(N)=O)NC(=O)[C@H](CO)NC(=O)[C@H](Cc3ccc(O)cc3)NC(=O)[C@H](CCSC)NC(=O)[C@H](CCCNC(=N)N)NC(=O)CNC(=O)[C@H](Cc3ccccc3)NC(=O)[C@H](CCC(=O)O)NC(=O)[C@H](CC(=O)O)NC(=O)[C@H](Cc3ccccc3)NC(=O)[C@H](C(C)C)NC(=O)[C@@H]3CCCN3C(=O)[C@H](CCC(N)=O)NC(=O)[C@H](Cc3ccc(O)cc3)NC1=O)C(=O)N[C@@H](CCC(=O)O)C(=O)N[C@@H](CCSC)C(=O)N[C@@H](CCC(N)=O)C(=O)N[C@@H](CCCNC(=N)N)C(=O)N[C@@H](C)C(=O)N[C@@H](CCCNC(=N)N)C(=O)N[C@H](C(=O)N[C@@H](CC(C)C)C(=O)N[C@@H](CCCNC(=N)N)C(=O)NCC(=O)O)CSSC[C@H](N)C(=O)N[C@@H](C)C(=O)N[C@@H](CCC(N)=O)C(=O)N[C@@H](C(C)C)C(=O)N2", "note": "[P2A] (H-CAQVCPAIYQPVFDEFGRMYSNSCEMQRARCLRG-OH; disulfide 1-31, 5-24)", "pKi": 7.00}, {"smiles": "CC[C@H](C)[C@@H]1NC(=O)[C@H](C)NC(=O)[C@H](C)NC(=O)[C@@H]2CSSC[C@H](NC(=O)[C@H](CO)NC(=O)[C@H](CC(N)=O)NC(=O)[C@H](CO)NC(=O)[C@H](Cc3ccc(O)cc3)NC(=O)[C@H](CCSC)NC(=O)[C@H](CCCNC(=N)N)NC(=O)CNC(=O)[C@H](Cc3ccccc3)NC(=O)[C@H](CCC(=O)O)NC(=O)[C@H](CC(=O)O)NC(=O)[C@H](Cc3ccccc3)NC(=O)[C@H](C(C)C)NC(=O)[C@@H]3CCCN3C(=O)[C@H](CCC(N)=O)NC(=O)[C@H](Cc3ccc(O)cc3)NC1=O)C(=O)N[C@@H](CCC(=O)O)C(=O)N[C@@H](CCSC)C(=O)N[C@@H](CCC(N)=O)C(=O)N[C@@H](CCCNC(=N)N)C(=O)N[C@@H](C)C(=O)N[C@@H](CCCNC(=N)N)C(=O)N[C@H](C(=O)N[C@@H](CC(C)C)C(=O)N[C@@H](CCCNC(=N)N)C(=O)NCC(=O)O)CSSC[C@H](N)C(=O)N1CCC[C@H]1C(=O)N[C@@H](CCC(N)=O)C(=O)N[C@@H](C(C)C)C(=O)N2", "note": "[P6A] (H-CPQVCAAIYQPVFDEFGRMYSNSCEMQRARCLRG-OH; disulfide 1-31, 5-24)", "pKi": 6.98}, {"smiles": "CC[C@H](C)[C@@H]1NC(=O)[C@H](C)NC(=O)[C@@H]2CCCN2C(=O)[C@@H]2CSSC[C@H](NC(=O)[C@H](CO)NC(=O)[C@H](CC(N)=O)NC(=O)[C@H](CO)NC(=O)[C@H](Cc3ccc(O)cc3)NC(=O)[C@H](CCSC)NC(=O)[C@H](CCCNC(=N)N)NC(=O)CNC(=O)[C@H](Cc3ccccc3)NC(=O)[C@H](CCC(=O)O)NC(=O)[C@H](CC(=O)O)NC(=O)[C@H](Cc3ccccc3)NC(=O)[C@H](C(C)C)NC(=O)[C@@H]3CCCN3C(=O)[C@H](CCC(N)=O)NC(=O)[C@H](Cc3ccc(O)cc3)NC1=O)C(=O)N[C@@H](CCC(=O)O)C(=O)N[C@@H](CCSC)C(=O)N[C@@H](CCC(N)=O)C(=O)N[C@@H](CCCNC(=N)N)C(=O)N[C@@H](C)C(=O)N[C@@H](CCCNC(=N)N)C(=O)N[C@H](C(=O)N[C@@H](CC(C)C)C(=O)N[C@@H](CCCNC(=N)N)C(=O)NCC(=O)O)CSSC[C@H](N)C(=O)N1CCC[C@H]1C(=O)N[C@@H](C)C(=O)N[C@@H](C(C)C)C(=O)N2", "note": "[Q3A] (H-CPAVCPAIYQPVFDEFGRMYSNSCEMQRARCLRG-OH; disulfide 1-31, 5-24)", "pKi": 6.94}, {"smiles": "CC[C@H](C)[C@@H]1NC(=O)[C@H](C)NC(=O)[C@@H]2CCCN2C(=O)[C@@H]2CSSC[C@H](NC(=O)[C@H](CO)NC(=O)[C@H](CC(N)=O)NC(=O)[C@H](CO)NC(=O)[C@H](Cc3ccc(O)cc3)NC(=O)[C@H](CCSC)NC(=O)[C@H](CCCNC(=N)N)NC(=O)CNC(=O)[C@H](Cc3ccccc3)NC(=O)[C@H](CCC(=O)O)NC(=O)[C@H](CC(=O)O)NC(=O)[C@H](Cc3ccccc3)NC(=O)[C@H](C(C)C)NC(=O)[C@@H]3CCCN3C(=O)[C@H](C)NC(=O)[C@H](Cc3ccc(O)cc3)NC1=O)C(=O)N[C@@H](CCC(=O)O)C(=O)N[C@@H](CCSC)C(=O)N[C@@H](CCC(N)=O)C(=O)N[C@@H](CCCNC(=N)N)C(=O)N[C@@H](C)C(=O)N[C@@H](CCCNC(=N)N)C(=O)N[C@H](C(=O)N[C@@H](CC(C)C)C(=O)N[C@@H](CCCNC(=N)N)C(=O)NCC(=O)O)CSSC[C@H](N)C(=O)N1CCC[C@H]1C(=O)N[C@@H](CCC(N)=O)C(=O)N[C@@H](C(C)C)C(=O)N2", "note": "[Q10A] (H-CPQVCPAIYAPVFDEFGRMYSNSCEMQRARCLRG-OH; disulfide 1-31, 5-24)", "pKi": 7.87}, {"smiles": "CC[C@H](C)[C@@H]1NC(=O)[C@H](C)NC(=O)[C@@H]2CCCN2C(=O)[C@@H]2CSSC[C@H](NC(=O)[C@H](CO)NC(=O)[C@H](CC(N)=O)NC(=O)[C@H](C)NC(=O)[C@H](Cc3ccc(O)cc3)NC(=O)[C@H](CCSC)NC(=O)[C@H](CCCNC(=N)N)NC(=O)CNC(=O)[C@H](Cc3ccccc3)NC(=O)[C@H](CCC(=O)O)NC(=O)[C@H](CC(=O)O)NC(=O)[C@H](Cc3ccccc3)NC(=O)[C@H](C(C)C)NC(=O)[C@@H]3CCCN3C(=O)[C@H](CCC(N)=O)NC(=O)[C@H](Cc3ccc(O)cc3)NC1=O)C(=O)N[C@@H](CCC(=O)O)C(=O)N[C@@H](CCSC)C(=O)N[C@@H](CCC(N)=O)C(=O)N[C@@H](CCCNC(=N)N)C(=O)N[C@@H](C)C(=O)N[C@@H](CCCNC(=N)N)C(=O)N[C@H](C(=O)N[C@@H](CC(C)C)C(=O)N[C@@H](CCCNC(=N)N)C(=O)NCC(=O)O)CSSC[C@H](N)C(=O)N1CCC[C@H]1C(=O)N[C@@H](CCC(N)=O)C(=O)N[C@@H](C(C)C)C(=O)N2", "note": "[S21A] (H-CPQVCPAIYQPVFDEFGRMYANSCEMQRARCLRG-OH; disulfide 1-31, 5-24)", "pKi": 7.77}, {"smiles": "CC[C@H](C)[C@@H]1NC(=O)[C@H](C)NC(=O)[C@@H]2CCCN2C(=O)[C@@H]2CSSC[C@H](NC(=O)[C@H](CO)NC(=O)[C@H](CC(N)=O)NC(=O)[C@H](CO)NC(=O)[C@H](Cc3ccc(O)cc3)NC(=O)[C@H](CCSC)NC(=O)[C@H](CCCNC(=N)N)NC(=O)CNC(=O)[C@H](Cc3ccccc3)NC(=O)[C@H](CCC(=O)O)NC(=O)[C@H](CC(=O)O)NC(=O)[C@H](Cc3ccccc3)NC(=O)[C@H](C(C)C)NC(=O)[C@@H]3CCCN3C(=O)[C@H](CCC(N)=O)NC(=O)[C@H](Cc3ccc(O)cc3)NC1=O)C(=O)N[C@@H](CCC(=O)O)C(=O)N[C@@H](CCSC)C(=O)N[C@@H](CCC(N)=O)C(=O)N[C@@H](CCCNC(=N)N)C(=O)N[C@@H](C)C(=O)N[C@@H](CCCNC(=N)N)C(=O)N[C@H](C(=O)N[C@@H](CC(C)C)C(=O)N[C@@H](CCCNC(=N)N)C(=O)NCC(=O)O)CSSC[C@H](N)C(=O)N1CCC[C@H]1C(=O)N[C@@H](CCC(N)=O)C(=O)N[C@@H](C)C(=O)N2", "note": "[V4A] (H-CPQACPAIYQPVFDEFGRMYSNSCEMQRARCLRG-OH; disulfide 1-31, 5-24)", "pKi": 7.88}, {"smiles": "CC[C@H](C)[C@@H]1NC(=O)[C@H](C)NC(=O)[C@@H]2CCCN2C(=O)[C@@H]2CSSC[C@H](NC(=O)[C@H](CO)NC(=O)[C@H](CC(N)=O)NC(=O)[C@H](CO)NC(=O)[C@H](Cc3ccc(O)cc3)NC(=O)[C@H](CCSC)NC(=O)[C@H](CCCNC(=N)N)NC(=O)CNC(=O)[C@H](Cc3ccccc3)NC(=O)[C@H](CCC(=O)O)NC(=O)[C@H](CC(=O)O)NC(=O)[C@H](Cc3ccccc3)NC(=O)[C@H](C(C)C)NC(=O)[C@@H]3CCCN3C(=O)[C@H](CCC(N)=O)NC(=O)[C@H](C)NC1=O)C(=O)N[C@@H](CCC(=O)O)C(=O)N[C@@H](CCSC)C(=O)N[C@@H](CCC(N)=O)C(=O)N[C@@H](CCCNC(=N)N)C(=O)N[C@@H](C)C(=O)N[C@@H](CCCNC(=N)N)C(=O)N[C@H](C(=O)N[C@@H](CC(C)C)C(=O)N[C@@H](CCCNC(=N)N)C(=O)NCC(=O)O)CSSC[C@H](N)C(=O)N1CCC[C@H]1C(=O)N[C@@H](CCC(N)=O)C(=O)N[C@@H](C(C)C)C(=O)N2", "note": "[Y9A] (H-CPQVCPAIAQPVFDEFGRMYSNSCEMQRARCLRG-OH; disulfide 1-31, 5-24)", "pKi": "< 3.00"}]}]}
